According to ChEMBL document CHEMBL1201862, “PubChem BioAssay data set” (2004):
Each block holds one compound with its values, some of them ahead of it. Active and inactive are the calls of the source.

Key:
[1] = target: Heat shock protein HSP 90-alpha (Homo sapiens, UniProt P07900); assay type: functional, organism-based
Streptococcus = assay: GAS UMAA2166 growth inhibition – luminescence, BacTiterGlo, counter-screen for streptokinase expression inhibitor project, dose response (AID 1915); assay type: functional, organism-based;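 note: potency for reduction of bacterial viability or growth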
Beta-galactosidase = Beta-galactosidase (Escherichia coli, UniProt Q8VNN2); assay: detection-enzyme interference by beta-gal modulators – biochemical, E. coli enzyme, set 3, artefact control for CCR6 antagonist project, dose response (AID 504712); assay type: functional
Sequence of Beta-galactosidase (Q8VNN2 whole entry): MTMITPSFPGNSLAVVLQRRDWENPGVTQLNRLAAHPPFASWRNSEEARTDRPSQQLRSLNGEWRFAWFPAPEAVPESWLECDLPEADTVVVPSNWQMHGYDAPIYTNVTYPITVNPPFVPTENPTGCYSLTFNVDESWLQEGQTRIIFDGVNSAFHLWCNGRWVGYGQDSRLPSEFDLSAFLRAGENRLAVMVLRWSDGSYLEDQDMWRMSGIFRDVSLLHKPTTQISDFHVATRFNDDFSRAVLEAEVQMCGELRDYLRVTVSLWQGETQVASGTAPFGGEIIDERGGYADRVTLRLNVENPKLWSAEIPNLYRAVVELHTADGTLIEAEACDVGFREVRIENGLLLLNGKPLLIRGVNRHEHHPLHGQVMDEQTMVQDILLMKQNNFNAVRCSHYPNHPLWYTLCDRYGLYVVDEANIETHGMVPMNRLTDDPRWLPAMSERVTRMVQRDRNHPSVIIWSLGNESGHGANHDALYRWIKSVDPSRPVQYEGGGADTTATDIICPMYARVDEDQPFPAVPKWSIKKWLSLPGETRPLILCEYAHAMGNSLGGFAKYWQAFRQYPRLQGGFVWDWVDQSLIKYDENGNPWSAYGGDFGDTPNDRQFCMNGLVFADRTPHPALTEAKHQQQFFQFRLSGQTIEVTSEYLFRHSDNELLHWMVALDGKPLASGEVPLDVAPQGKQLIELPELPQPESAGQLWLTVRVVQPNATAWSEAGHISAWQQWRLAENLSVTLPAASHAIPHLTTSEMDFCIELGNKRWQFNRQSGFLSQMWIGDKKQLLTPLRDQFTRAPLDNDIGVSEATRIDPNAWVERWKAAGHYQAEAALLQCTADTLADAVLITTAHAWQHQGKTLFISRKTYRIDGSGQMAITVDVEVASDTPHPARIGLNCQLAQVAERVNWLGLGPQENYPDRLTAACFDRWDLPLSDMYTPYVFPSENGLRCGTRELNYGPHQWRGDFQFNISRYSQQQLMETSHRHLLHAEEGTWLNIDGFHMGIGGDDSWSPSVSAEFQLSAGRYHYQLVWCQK

[2] = system: Streptococcus sp. 'group A'; assay: Streptococcus pyogenes SK(-)GAS viability under kanamycin – luminescence, BacTiterGlo, confirmation, counter-screen for streptokinase expression inhibitor project, dose response (AID 1900); assay type: functional, organism-based
[3] = target: T1, Short transient receptor potential channel 4 (Mus musculus, UniProt Q9QUQ5); assay: potentiation of DAMGO-evoked TRPC4 calcium signal – cell-based, HEK293 TRPC4/mu-opioid, Fluo-4 calcium, EC20 DAMGO, dose response (AID 434941); assay type: functional
T1 sequence (Q9QUQ5 whole entry): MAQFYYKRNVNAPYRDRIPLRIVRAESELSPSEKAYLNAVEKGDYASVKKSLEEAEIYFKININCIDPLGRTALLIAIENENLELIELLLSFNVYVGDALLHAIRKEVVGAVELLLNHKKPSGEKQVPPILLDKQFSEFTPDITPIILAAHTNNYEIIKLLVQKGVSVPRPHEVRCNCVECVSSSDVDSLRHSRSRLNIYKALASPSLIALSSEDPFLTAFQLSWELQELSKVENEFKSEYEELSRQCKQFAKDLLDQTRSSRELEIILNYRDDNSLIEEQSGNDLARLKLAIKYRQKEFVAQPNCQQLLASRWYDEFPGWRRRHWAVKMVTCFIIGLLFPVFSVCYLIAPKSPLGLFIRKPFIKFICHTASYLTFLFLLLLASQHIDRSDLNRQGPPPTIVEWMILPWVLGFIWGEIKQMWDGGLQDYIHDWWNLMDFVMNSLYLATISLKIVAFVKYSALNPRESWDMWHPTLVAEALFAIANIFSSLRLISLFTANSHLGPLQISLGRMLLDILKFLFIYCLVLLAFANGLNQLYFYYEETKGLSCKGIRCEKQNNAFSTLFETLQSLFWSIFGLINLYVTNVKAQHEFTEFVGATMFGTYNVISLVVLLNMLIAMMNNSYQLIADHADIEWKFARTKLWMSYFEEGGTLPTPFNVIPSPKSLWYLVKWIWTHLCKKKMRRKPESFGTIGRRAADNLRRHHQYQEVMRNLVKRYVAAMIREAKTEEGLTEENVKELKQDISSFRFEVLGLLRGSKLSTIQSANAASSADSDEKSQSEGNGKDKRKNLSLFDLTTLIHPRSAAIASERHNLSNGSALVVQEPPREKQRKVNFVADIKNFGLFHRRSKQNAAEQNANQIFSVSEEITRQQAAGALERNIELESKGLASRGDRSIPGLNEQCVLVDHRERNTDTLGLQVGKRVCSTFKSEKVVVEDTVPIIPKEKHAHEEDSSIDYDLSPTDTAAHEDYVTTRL

CAAX prenyl protease 2 = target: T2, CAAX prenyl protease 2 (Saccharomyces cerevisiae S288c, UniProt Q03530); assay type: biochemical
T2 sequence (Q03530 whole entry): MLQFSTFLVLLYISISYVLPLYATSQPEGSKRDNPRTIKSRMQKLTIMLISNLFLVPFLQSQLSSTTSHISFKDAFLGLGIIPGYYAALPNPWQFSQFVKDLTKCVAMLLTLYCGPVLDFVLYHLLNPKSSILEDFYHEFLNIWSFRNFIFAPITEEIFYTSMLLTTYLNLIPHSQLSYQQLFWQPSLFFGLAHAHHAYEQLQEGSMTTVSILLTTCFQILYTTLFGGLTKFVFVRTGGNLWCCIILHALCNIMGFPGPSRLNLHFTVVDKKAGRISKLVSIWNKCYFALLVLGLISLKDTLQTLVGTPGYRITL

[4] = target: Induced myeloid leukemia cell differentiation protein Mcl-1 (Homo sapiens, UniProt Q07820); assay type: functional
Sequence of Induced myeloid leukemia cell differentiation protein Mcl-1 (Q07820 whole entry): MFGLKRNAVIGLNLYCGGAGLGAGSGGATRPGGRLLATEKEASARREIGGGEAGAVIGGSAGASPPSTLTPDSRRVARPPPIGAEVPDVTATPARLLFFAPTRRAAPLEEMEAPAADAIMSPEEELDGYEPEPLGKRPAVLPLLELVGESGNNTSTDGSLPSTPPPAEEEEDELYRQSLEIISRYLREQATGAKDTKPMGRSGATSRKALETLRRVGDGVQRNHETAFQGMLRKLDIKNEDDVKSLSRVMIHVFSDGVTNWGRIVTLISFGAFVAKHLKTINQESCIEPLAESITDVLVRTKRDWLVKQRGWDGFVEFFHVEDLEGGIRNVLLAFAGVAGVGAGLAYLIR

Vero = assay: viability of Vero cells under compound – cytotoxicity control for flavivirus capping enzyme inhibitors (AID 588742); assay type: functional; details: Chlorocebus sabaeus
Genome polyprotein = Genome polyprotein (dengue virus type 2, UniProt P29990); assay: flavivirus cap methylation enzyme inhibition – biochemical, confirmation dose response, primary screen (AID 588689); assay type: functional
Sequence of Genome polyprotein (P29990 2492-3391 limits assumed): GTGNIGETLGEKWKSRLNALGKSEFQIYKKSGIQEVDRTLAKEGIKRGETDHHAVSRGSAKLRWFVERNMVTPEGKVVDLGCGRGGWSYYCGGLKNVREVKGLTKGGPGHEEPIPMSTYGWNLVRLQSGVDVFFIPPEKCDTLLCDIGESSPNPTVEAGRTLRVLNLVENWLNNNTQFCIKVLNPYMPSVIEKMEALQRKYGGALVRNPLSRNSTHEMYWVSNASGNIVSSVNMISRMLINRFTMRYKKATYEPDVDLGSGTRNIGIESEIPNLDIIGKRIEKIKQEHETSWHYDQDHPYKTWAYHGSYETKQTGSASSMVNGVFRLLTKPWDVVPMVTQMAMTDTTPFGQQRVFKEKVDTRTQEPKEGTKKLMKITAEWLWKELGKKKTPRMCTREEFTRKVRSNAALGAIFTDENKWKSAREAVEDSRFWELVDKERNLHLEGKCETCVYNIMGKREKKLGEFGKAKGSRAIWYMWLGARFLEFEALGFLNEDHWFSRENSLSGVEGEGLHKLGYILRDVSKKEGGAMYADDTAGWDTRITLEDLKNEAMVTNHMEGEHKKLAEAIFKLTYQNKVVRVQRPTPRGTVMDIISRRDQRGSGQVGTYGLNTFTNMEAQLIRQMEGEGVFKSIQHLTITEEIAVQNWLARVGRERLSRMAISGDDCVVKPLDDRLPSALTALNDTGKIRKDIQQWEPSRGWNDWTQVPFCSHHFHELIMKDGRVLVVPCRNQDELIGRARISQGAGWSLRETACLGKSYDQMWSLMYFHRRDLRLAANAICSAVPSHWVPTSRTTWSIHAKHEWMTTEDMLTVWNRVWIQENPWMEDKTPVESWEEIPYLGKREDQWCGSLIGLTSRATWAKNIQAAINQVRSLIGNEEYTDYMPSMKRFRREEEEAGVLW

Hexokinase HKDC1 = target: T3, Hexokinase HKDC1 (Homo sapiens, UniProt Q2TB90); assay: inhibition of HKDC1 glucose phosphorylation – biochemical, W721R variant, dose response (AID 504729); assay type: functional
T3 sequence (Q2TB90 whole entry): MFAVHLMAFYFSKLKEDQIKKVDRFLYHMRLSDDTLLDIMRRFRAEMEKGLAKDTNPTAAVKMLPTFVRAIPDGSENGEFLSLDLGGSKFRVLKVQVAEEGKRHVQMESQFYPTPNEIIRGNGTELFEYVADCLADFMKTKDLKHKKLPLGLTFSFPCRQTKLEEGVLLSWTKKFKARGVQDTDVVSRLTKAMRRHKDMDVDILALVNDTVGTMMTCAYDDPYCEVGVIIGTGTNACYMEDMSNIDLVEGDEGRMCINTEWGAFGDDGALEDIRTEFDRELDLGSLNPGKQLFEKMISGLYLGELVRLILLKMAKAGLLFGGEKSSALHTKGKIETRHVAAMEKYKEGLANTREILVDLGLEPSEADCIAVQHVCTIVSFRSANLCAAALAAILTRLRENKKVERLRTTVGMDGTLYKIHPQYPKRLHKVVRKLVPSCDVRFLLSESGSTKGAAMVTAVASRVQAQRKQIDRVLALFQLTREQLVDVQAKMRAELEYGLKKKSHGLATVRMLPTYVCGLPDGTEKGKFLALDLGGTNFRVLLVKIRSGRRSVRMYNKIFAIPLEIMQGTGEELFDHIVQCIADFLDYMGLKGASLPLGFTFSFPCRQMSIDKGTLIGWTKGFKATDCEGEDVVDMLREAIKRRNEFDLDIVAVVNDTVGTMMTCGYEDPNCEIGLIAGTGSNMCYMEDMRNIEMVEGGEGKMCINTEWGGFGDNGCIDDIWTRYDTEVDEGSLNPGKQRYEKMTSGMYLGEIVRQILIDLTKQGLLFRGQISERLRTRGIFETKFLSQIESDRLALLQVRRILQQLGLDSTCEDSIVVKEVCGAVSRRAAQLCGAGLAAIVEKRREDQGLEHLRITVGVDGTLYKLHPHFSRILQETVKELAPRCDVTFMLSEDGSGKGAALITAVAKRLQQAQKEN

SUMO-activating enzyme [5] = target: T4, SUMO-activating enzyme (Homo sapiens, UniProt Q9UBT2); assay: blockers of UBC9-mediated SUMO conjugation – biochemical, AlphaScreen, SUMOylation inhibitor project, confirmation (AID 2018); assay type: functional
T4 sequence (Q9UBE0 whole entry): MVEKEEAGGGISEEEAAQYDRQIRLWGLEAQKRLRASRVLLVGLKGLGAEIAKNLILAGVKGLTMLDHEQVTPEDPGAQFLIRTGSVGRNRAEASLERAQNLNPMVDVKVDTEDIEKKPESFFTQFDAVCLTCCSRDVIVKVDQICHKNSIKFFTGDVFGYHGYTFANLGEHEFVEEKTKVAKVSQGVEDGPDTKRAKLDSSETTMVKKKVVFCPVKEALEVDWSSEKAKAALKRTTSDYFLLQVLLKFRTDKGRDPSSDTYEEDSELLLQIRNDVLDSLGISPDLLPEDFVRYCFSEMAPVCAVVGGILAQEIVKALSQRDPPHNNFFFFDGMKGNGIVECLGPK
T4 sequence (Q9UBT2 whole entry): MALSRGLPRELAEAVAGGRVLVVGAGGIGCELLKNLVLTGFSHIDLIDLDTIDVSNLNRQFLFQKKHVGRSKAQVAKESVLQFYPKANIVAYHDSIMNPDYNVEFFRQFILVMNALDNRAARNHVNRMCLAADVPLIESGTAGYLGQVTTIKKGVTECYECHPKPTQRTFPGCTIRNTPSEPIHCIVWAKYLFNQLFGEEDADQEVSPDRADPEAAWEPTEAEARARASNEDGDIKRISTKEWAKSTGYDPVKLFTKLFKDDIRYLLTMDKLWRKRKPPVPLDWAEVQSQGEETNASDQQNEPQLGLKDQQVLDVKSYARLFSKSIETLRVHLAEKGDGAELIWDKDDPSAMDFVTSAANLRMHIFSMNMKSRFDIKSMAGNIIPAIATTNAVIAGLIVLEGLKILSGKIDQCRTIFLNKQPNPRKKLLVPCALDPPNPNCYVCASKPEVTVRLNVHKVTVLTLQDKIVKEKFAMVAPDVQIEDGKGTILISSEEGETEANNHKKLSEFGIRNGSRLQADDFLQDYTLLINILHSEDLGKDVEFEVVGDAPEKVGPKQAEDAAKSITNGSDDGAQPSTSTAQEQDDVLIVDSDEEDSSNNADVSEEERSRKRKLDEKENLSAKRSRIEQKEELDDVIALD

SUMO-activating enzyme [6] = target: T4, SUMO-activating enzyme; assay: blockers of SAE1/SAE2–UBC9 SUMO transfer – biochemical, HTRF, uHTS, primary screen (AID 2006); assay type: protein-complex assay
[7] = target: G-protein coupled receptor 55 (Homo sapiens, UniProt Q9Y2T6); assay: inhibition of LPI-stimulated GPR55 beta-arrestin translocation – imaging, U2OS, beta-arrestin-GFP, LPI agonist, primary screen (AID 2013); assay type: functional;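 note: antagonist potency measured as reduced agonist-driven arrestin aggregation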
Sequence of G-protein coupled receptor 55 (Q9Y2T6 whole entry): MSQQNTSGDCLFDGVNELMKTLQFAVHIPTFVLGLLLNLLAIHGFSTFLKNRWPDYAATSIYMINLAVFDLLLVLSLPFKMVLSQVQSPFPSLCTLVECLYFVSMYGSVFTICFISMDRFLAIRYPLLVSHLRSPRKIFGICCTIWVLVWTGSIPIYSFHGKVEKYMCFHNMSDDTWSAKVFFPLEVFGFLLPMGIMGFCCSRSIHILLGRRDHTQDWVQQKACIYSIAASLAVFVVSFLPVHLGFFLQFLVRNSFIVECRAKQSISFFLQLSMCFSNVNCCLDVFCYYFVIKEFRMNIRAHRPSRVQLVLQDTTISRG

SMILES: O=C(Nc1nc(-c2ccccc2)c(-c2ccccc2)o1)c1ccc(F)cc1
AC50 [1]: 7.59 µM (active)
EC50 (Streptococcus): 1.77 µM (active)
IC50 (Beta-galactosidase): > 66.6 µM (inactive)
EC50 [2]: 0.894 µM (active)

SMILES: CC(C)c1ccc(S(=O)(=O)/N=C2/C=C(Sc3nc[nH]n3)C(=O)c3ccccc32)cc1
IC50 [4]: 1.35 µM (active)
CC50 (Vero): 22.2 µM (active)
IC50 (Genome polyprotein): 6.89 µM (active)
IC50 (Hexokinase HKDC1): 2.88 µM (active)

SMILES: CCOC(=O)C1=C(C)N=C(C)/C(=C(/O)OC)C1c1cccc([N+](=O)[O-])c1 (stereo not drawn)
IC50 [7]: 1.47 µM (active)

The next lines start with the values.

EC50 [3]: 3.76 µM (active)
SMILES: O=C1C(Cl)=C(Nc2cccc(O)c2)C(=O)N1Cc1ccccc1

AC50 (CAAX prenyl protease 2): 4.91 µM (active)
SMILES: CCn1cc(/C=C(\NC(=O)c2ccccc2Cl)C(=O)N2CCOCC2)c2ccccc21

IC50 (SUMO-activating enzyme [5]): 16.8 µM (active)
IC50 (SUMO-activating enzyme [6]): 24.7 µM (active)
SMILES: Cc1ccccc1C(=O)Nc1nnc(CC(=O)N/N=C/c2cn(Cc3ccccc3)c3ccccc23)s1
